This note sets out measurements from BindingDB's records for doi:10.1021/acsmedchemlett.7b00315 (Astrazeneca, 2017).

SMILES strings stand for the structures.

Assay [1] in a line: Antagonist activity at human CCR4 expressed in Th2 cells coexpressing CD45RA+ assessed as inhibition of CCL22 induced chemotaxis.
A short description of assay [2]: Antagonist activity at human CCR4 expressed in Th2 cells coexpressing CD45RA+ assessed as inhibition of CCL17 induced chemotaxis.
A short description of assay [3]: Antagonist activity at CCR4 in human primary Th2 cells by chemotaxis assay.

A word on the IC50: it is the concentration that inhibits the measured activity by half. Turning to `COc1nccnc1NS(=O)(=O)c1cccc(Cl)c1Cl`, the concentration for half-maximal inhibition (IC50) in assay [1] and in assay [2] was 501 nM in each case.

Consider `COc1nc(F)cnc1NS(=O)(=O)c1cccc(Cl)c1Cl`, for which the IC50 in assay [1] is 158 nM; in assay [2] it was 316 nM.

In assay [3], `COc1nc(Br)cnc1NS(=O)(=O)c1ccc(Cl)s1` yielded an IC50 of 200 nM.
